Reference: ChEMBL document CHEMBL1151100, “Potential cancer chemopreventive and cytotoxic agents from Pulicaria crispa” (1988)
≈ marks a conversion by molar mass, not a printed value.

Legend:
KB = experiment: Cytotoxicity against human KB cells; assay type: functional; conditions: read-out: ED50 (the source's name)
[1] = Anticarcinogenic activity in hamster embryonic cells at 25 ug/mL after 30 mins relative to control; assay type: functional, Cricetinae

SMILES: C=C1C(=O)O[C@@H]2C[C@@]3(C)C[C@@H](O)C[C@H](C)[C@@]34O[C@H]4[C@H]12
- EC50 (KB): 0.4 µg/mL (≈ 1.51 µM)

SMILES: C=C1C(=O)O[C@@H]2C[C@@]3(C)C[C@@H](O)C[C@H](C)C3=C[C@H]12
- EC50 (KB): 0.33 µg/mL (≈ 1.33 µM)

SMILES: COc1c(O)cc2oc(-c3ccc(O)c(O)c3)c(OC)c(=O)c2c1O [AXILLARIN]
- Activity [1]: 61.3%

SMILES: C=C1C(=O)O[C@@H]2C[C@@]3(C)C[C@@H](OC(C)=O)C[C@H](C)[C@@]34O[C@H]4[C@H]12
- EC50 (KB): 0.05 µg/mL (≈ 0.163 µM)
